Results from PubChem BioAssay AID2060487 (Molecular Pharmacology Branch, DTP, NCI, 2025).

System: 997537-175-T-J1-PDC complex spheroid viability
Test: Anticancer human tumor 997537-175-T-J1-PDC patient-derived colon adenocarcinoma cell line growth inhibition [GQUAD]
Conditions: for IC50: curve of first compound; for viability, T/C: stronger effect = lower value; active means viability on the fitted dose curve at most 10% of control; inactive means the rest
Procedure, shortened: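 Viability of tumor cells grown as complex spheroids with endothelial and stromal cells, exposed to drug combinations. Top concentration at or near clinical Cmax (else 10 microM), diluted in half-log increments.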

[1] = second compound 0.0316 µM, first compound 0.0316 µM
[2] = second compound 0.0316 µM, first compound 0.316 µM
[3] = second compound 0.1 µM, first compound 0.0316 µM
[4] = second compound 0.1 µM, first compound 0.316 µM
[5] = second compound 0.316 µM, first compound 0.0316 µM
[6] = second compound 0.316 µM, first compound 0.316 µM
[7] = second compound 1 µM, first compound 0.0316 µM
[8] = second compound 1 µM, first compound 0.316 µM
[9] = second compound 3.16 µM, first compound 0.0316 µM
[10] = second compound 3.16 µM, first compound 0.316 µM
[11] = second compound 10 µM, first compound 0.0316 µM
[12] = second compound 10 µM, first compound 0.316 µM
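Further: spheroids exposed to the agents for 7 days.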
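Wherever viability, T/C is given: 100% = DMSO vehicle control viability.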

CC(C)(O)C1CCC(Nc2ccc3ncc(-c4cccc(C(F)(F)F)c4)n3n2)CC1 (centres undefined) + CN(C)c1ccc(Nc2c3ccc(NC(=O)CCN4CCCC4)cc3nc3cc(NC(=O)CCN4CCCC4)ccc23)cc1
inactive: viability, T/C [1] 99.5% | viability, T/C (second compound 0.0316 µM, first compound 0.1 µM) 108% | viability, T/C [2] 88% | viability, T/C (second compound 0.0316 µM, first compound 1 µM) 65.8% | viability, T/C (second compound 0.0316 µM, first compound 3.16 µM) 41.1% | viability, T/C (second compound 0.0316 µM, first compound 10 µM) 26.1% | viability, T/C [3] 83.8% | viability, T/C (second compound 0.1 µM, first compound 0.1 µM) 89.8% | viability, T/C [4] 78.2% | viability, T/C (second compound 0.1 µM, first compound 1 µM) 58.9% | viability, T/C (second compound 0.1 µM, first compound 3.16 µM) 38.2% | viability, T/C (second compound 0.1 µM, first compound 10 µM) 45.8% | viability, T/C [5] 85.2% | viability, T/C (second compound 0.316 µM, first compound 0.1 µM) 78.5% | viability, T/C [6] 78.2% | viability, T/C (second compound 0.316 µM, first compound 1 µM) 75.3% | viability, T/C (second compound 0.316 µM, first compound 3.16 µM) 27.9% | viability, T/C (second compound 0.316 µM, first compound 10 µM) 20.4% | viability, T/C [7] 61.4% | viability, T/C (second compound 1 µM, first compound 0.1 µM) 91.5% | viability, T/C [8] 79.2% | viability, T/C (second compound 1 µM, first compound 1 µM) 81% | viability, T/C (second compound 1 µM, first compound 3.16 µM) 30.4% | viability, T/C (second compound 1 µM, first compound 10 µM) 44.9% | viability, T/C [9] 64.5% | viability, T/C (second compound 3.16 µM, first compound 0.1 µM) 85.5% | viability, T/C [10] 79.4% | viability, T/C (second compound 3.16 µM, first compound 1 µM) 54.5% | viability, T/C (second compound 3.16 µM, first compound 3.16 µM) 44% | viability, T/C (second compound 3.16 µM, first compound 10 µM) 36.7% | viability, T/C [11] 87.8% | viability, T/C (second compound 10 µM, first compound 0.1 µM) 96.4% | viability, T/C [12] 95.9% | viability, T/C (second compound 10 µM, first compound 1 µM) 70.5% | viability, T/C (second compound 10 µM, first compound 3.16 µM) 37.2% | viability, T/C (second compound 10 µM, first compound 10 µM) 22.6%
1820 nM: IC50 (second compound 0.1 µM)
2020 nM: IC50 (second compound 10 µM)
2030 nM: IC50 (second compound 0.0316 µM)
1850 nM: IC50 (second compound 0.316 µM)
1450 nM: IC50 (second compound 3.16 µM)
2230 nM: IC50 (second compound 1 µM)

Cc1[nH]c2ccccc2c1CCNCc1ccc(/C=C/C(=O)NO)cc1 + CN(C)c1ccc(Nc2c3ccc(NC(=O)CCN4CCCC4)cc3nc3cc(NC(=O)CCN4CCCC4)ccc23)cc1
237 nM: IC50 (second compound 10 µM)
199 nM: IC50 (second compound 1 µM)
inactive: viability, T/C (second compound 0.0316 µM, first compound 0.000999 µM) 103% | viability, T/C (second compound 0.0316 µM, first compound 0.00316 µM) 74.8% | viability, T/C (second compound 0.0316 µM, first compound 0.00999 µM) 85% | viability, T/C [1] 102% | viability, T/C (second compound 0.0316 µM, first compound 0.0999 µM) 77.2% | viability, T/C [2] 48.8% | viability, T/C (second compound 0.1 µM, first compound 0.000999 µM) 97.8% | viability, T/C (second compound 0.1 µM, first compound 0.00316 µM) 86% | viability, T/C (second compound 0.1 µM, first compound 0.00999 µM) 79.2% | viability, T/C [3] 94% | viability, T/C (second compound 0.1 µM, first compound 0.0999 µM) 78.8% | viability, T/C [4] 42.4% | viability, T/C (second compound 0.316 µM, first compound 0.000999 µM) 91.5% | viability, T/C (second compound 0.316 µM, first compound 0.00316 µM) 81.8% | viability, T/C (second compound 0.316 µM, first compound 0.00999 µM) 88% | viability, T/C [5] 80.9% | viability, T/C (second compound 0.316 µM, first compound 0.0999 µM) 93.3% | viability, T/C [6] 41% | viability, T/C (second compound 1 µM, first compound 0.000999 µM) 88.5% | viability, T/C (second compound 1 µM, first compound 0.00316 µM) 77.1% | viability, T/C (second compound 1 µM, first compound 0.00999 µM) 87.5% | viability, T/C [7] 80.8% | viability, T/C (second compound 1 µM, first compound 0.0999 µM) 96.1% | viability, T/C [8] 26% | viability, T/C (second compound 3.16 µM, first compound 0.000999 µM) 89.5% | viability, T/C (second compound 3.16 µM, first compound 0.00316 µM) 74.9% | viability, T/C (second compound 3.16 µM, first compound 0.00999 µM) 87.6% | viability, T/C [9] 68% | viability, T/C (second compound 3.16 µM, first compound 0.0999 µM) 91.6% | viability, T/C [10] 55% | viability, T/C (second compound 10 µM, first compound 0.000999 µM) 82.3% | viability, T/C (second compound 10 µM, first compound 0.00316 µM) 56.7% | viability, T/C (second compound 10 µM, first compound 0.00999 µM) 96.1% | viability, T/C [11] 81.1% | viability, T/C (second compound 10 µM, first compound 0.0999 µM) 98.8% | viability, T/C [12] 39%
> 316 nM: IC50 (second compound 3.16 µM)
252 nM: IC50 (second compound 0.316 µM)
253 nM: IC50 (second compound 0.1 µM)
301 nM: IC50 (second compound 0.0316 µM)
